Test [1] deals with T1, human skin fibroblast collagenase (Homo sapiens, UniProt P03956).
T1 construct: endogenous in cells; host or cells: human skin fibroblasts
T1 sequence (P03956 100-469): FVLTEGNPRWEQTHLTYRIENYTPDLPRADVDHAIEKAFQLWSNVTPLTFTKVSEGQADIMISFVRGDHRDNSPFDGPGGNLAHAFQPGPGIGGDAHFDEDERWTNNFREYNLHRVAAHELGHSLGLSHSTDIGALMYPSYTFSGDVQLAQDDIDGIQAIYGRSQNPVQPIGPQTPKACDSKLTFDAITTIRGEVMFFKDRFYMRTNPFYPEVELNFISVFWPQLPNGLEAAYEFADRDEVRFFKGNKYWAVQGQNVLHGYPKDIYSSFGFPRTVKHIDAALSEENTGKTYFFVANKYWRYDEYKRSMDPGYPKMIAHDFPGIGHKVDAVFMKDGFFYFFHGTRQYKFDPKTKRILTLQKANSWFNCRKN
Nature of the test: inhibition of collagenase, synthetic thiol ester substrate, Ki (Table 1). The format is biochemical.
Description: Specifically, assay of inhibition activity can be conducted as follows. Inhibitors may be assayed against crude or purified human skin fibroblast collagenase, or purified human gingival fibroblast collagenase using the synthetic thiol ester substrate at pH 6.5 exactly as described by Kortylewicz & Galardy, J Med Chem (1990) 33:263-273, at a collagenase concentration of 1-2 nM. The candidate inhibitors are tested for their ability to inhibit crude collagenase and gelatinase from human skin fibroblasts, crude collagenase and gelatinase from purulent human neutrophils in this assay.

For test [2], the target named is T2, Human gingival fibrblast collagenase (Homo sapiens, UniProt P03956).
T2 construct: endogenous in cells; host or cells: human gingival fibroblasts
T2 sequence (P03956 100-469): T1 sequence (P03956 100-469)
As to the kind of experiment: inhibition of human gingival fibroblast collagenase (Table 2). It is filed as biochemical. To be noted: read-out: HGFC inhibitory activity.
Description: (§1) Specifically, assay of inhibition activity can be conducted as follows. […] Assays for inhibition of human stromelysin are conducted as described by Teahan, J., et al., Biochemistry (1989) 20:8497-8501.
(§2) Assay of inhibition activity can be conducted using a fluorogenic substrate developed by Knight et al., FEBS Letters (1992) 296:263. This method uses a fluorometer to determine the rate of substrate hydrolysis in a 96 well plate format. Reaction rates are determined at several substrate concentrations, and multiple inhibitor levels. The data are analyzed by Lineweaver-Burk, Dixon and Henderson plot analyses (Enzyme Kinetics (1975) Irwin Segal (John Wiley & Sons, Inc., publishers), and as described by Henderson, Biochem J. (1972) 127:321). The substrate levels range from 10-30μM. […] Inhibitors may be assayed against purified 72 kD gelatinase, 92 kD gelatinase, neutrophil collagenase, stromelysin or other proteases as appropriate. The enzymes are activated at 37° C. with APMA (4-aminophenylmercuric acetate), and the assays are carried out at room temperature.

For test [3], the system named is protease activity of chronic wound fluid. Nature of the test: Azocoll assay of protease activity in chronic wound fluid. The format is biochemical, human. To be noted: FIG. 7; for inhibition of protease activity of chronic wound fluid: highest concentration (800 μg/ml). The protocol: Fluids were collected from 3 types of human wounds termed closed spontaneously healing wounds, open slowly healing wounds, and open chronic wounds. In the first category were fluids collected from the chest wall of women following mastectomy surgery. Fluids from non-infected wounds that were left open for valid surgical reasons were considered open slowly healing wounds. An occlusive dressing was placed over the wound bed, and fluids were collected after 2-6 hours of occlusion. Finally, fluids were also collected from chronic open wounds by covering the wounds with occlusive dressings. Wounds were considered to be chronic if they were not clinically infected and had been open and not healing for more than 4 weeks.
The various wound fluids were assayed for matrix metalloproteinase activity using the Azocoll assay essentially as described by Chavira, et al., Analytic Biochemistry (1984), 136:446.
The fluids were centrifuged, and the supernatants filtered using a 0.45μ sterile Gelman filter. The filtrates were stored frozen at -80° C. until tested for protease activity.
The effects of four inhibitors on the protease activity present in wound fluids were determined. The inhibitors were: compounds
Stock solutions of the four inhibitors were all prepared at a concentration of 800 μg/ml. Due to different solubility properties of the inhibitors, different techniques were utilized. […] S1209 was dissolved in 1% DMSO then dissolved in 10 mM citrate, pH 5.5, containing 0.05% methyl cellulose. 39A was dissolved in propylene glycol (to give a final concentration of 2.4%) then dissolved in 1 mM CaCl2, 50 mM Tris-Cl, pH 7.8. 21A was dissolved in propylene glycol (2.4%) methyl cellulose (0.05%) and 10 mM citrate, pH 8.
The protease substrate, Azocoll, was obtained from Sigma Chemical Corporation and it is a substrate for collagenase/gelatinase-like metalloproteinase enzymes and general proteases. Clostridium histolyticum collagenase (the crude form of the enzyme) was from Worthington Biochemicals. General chemicals including TRIS buffer, DMSO, and CaCl2 were from Sigma Chemical Corporation.
Briefly, 900 μl of the Azocoll substrate suspension in buffer ([…] in 50 mM TRIS, pH 7.8, 1 mM CaCl2) was added to 1.5 ml microcentrifuge tubes then 50 μl of inhibitor (or buffer) and 50 μl of chronic wound fluid (or collagenase standard) were added to the reaction tube. The reaction tubes were placed at 37° C. in a shaker that inverted the tubes 30 times per minute. After 24 hours of incubation, the reaction tubes were centrifuges at 10,000 X g and the absorbance of the supernatant solution was measured at 520 nm with a Milton-Roy spectrophotometer. Proteolysis of Azocoll substrate generates soluble colored fragments from the insoluble Azocoll substrate. Wound fluid samples were incubated alone or with the inhibitors. Controls included incubation of the Azocoll substrate with the assay buffer to measure spontaneous degradation of the substrate. A standard curve for digestion of the Azocoll substrate was generated by incubation of the Azocoll with crude bacterial collagenase. Protease levels were expressed as net μg of collagenase equivalent per ml of chronic wound fluid. In the figures, certain of the wound fluids are referred to by an individual name.
For these experiments, due to the different solubility properties of the inhibitors, different techniques were utilized. […] S1209 was dissolved in 1% DMSO then dissolved in 10 mM citrate, pH 5.5, containing 0.05% methyl cellulose. 39A was dissolved in propylene glycol (to give a final concentration of 2.4%) then dissolved in 1 mM CaCl2, […] Tris-Cl, pH 7.8. 21A was dissolved in propylene glycol (2.4%) methyl cellulose (0.05%) and 10 mM citrate, pH 8.

A further test concerns the target Stromelysin (Homo sapiens, UniProt P08254). As to the kind of experiment: inhibition of stromelysin (Table 2). To be noted: read-out: Strom inhibitory activity. The format is biochemical.
The target in test [4] is T3, Natural human 72kD gelatinase (Homo sapiens, UniProt P08253).
T3 sequence (P08253 110-660): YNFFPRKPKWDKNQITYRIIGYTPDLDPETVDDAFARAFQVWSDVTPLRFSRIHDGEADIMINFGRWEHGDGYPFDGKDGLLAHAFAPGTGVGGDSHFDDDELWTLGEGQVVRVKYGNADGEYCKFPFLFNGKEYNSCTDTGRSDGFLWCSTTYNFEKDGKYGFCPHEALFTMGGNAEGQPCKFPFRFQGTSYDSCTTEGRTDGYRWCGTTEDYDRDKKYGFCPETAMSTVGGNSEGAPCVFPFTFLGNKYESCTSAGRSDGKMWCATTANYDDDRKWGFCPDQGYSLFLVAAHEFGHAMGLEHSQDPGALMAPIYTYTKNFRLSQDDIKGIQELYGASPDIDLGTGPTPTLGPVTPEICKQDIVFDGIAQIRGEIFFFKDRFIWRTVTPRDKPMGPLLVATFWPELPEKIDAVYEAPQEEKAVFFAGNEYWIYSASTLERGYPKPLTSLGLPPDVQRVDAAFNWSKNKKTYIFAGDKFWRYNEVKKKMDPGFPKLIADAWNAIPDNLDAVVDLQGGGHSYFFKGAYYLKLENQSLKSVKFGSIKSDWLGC
As to the kind of experiment: inhibition of 72kD gelatinase (Table 2). It is filed as biochemical. The settings on record: read-out: 72kD G inhibitory activity.
Description: as §1, §2

For test [5], the target named is Recombinant neutrophil collagenase (Homo sapiens, UniProt P22894). As to the kind of experiment: inhibition of recombinant neutrophil collagenase (Table 2). The format is biochemical. The settings on record: read-out: NC inhibitory activity.
Description: as §1, §2
Test [6] concerns PdiBu-Induced Epidermal Hyperplasia. Nature of the test: PdiBu-induced epidermal hyperplasia mouse model (psoriasis). It is filed as in vivo, hairless mice. The settings on record: topical.
Description: The phorbol ester, PdiBu (20 nmol in 20 μl if acetone) was applied to both ears of hairless mice (h/h) (approximately 1 cm^2 each). The test compounds (in total volume of 20 μl) were then applied to the right ear immediately (15 to 30 min) following PdiBu. The left ear of each animal received an equivalent amount (20 μl) of vehicle. Test compounds (and vehicle) were reapplied at 6 and 18 hours following PdiBu. Treatment times were staggered to allow exact time intervals to be obtained. At 30 hours after PdiBu, animals were anesthetized, and ear thickness values were obtained using a microcaliper. The weights of punch biopsies (6mm) were then obtained. Histology was performed on selected samples taken at 30 hours.
Left ear in each animal served as vehicle-treated controls (PdiBu+ETOH). Thus, the controls for this series include: 1) Untreated controls; 2) PdiBu plus vehicle alone (included for each mouse tested); 3) PdiBu plus AHA; 4) PdiBu plus Lidex® as a positive control.

Sequence of Stromelysin (P08254 100-477): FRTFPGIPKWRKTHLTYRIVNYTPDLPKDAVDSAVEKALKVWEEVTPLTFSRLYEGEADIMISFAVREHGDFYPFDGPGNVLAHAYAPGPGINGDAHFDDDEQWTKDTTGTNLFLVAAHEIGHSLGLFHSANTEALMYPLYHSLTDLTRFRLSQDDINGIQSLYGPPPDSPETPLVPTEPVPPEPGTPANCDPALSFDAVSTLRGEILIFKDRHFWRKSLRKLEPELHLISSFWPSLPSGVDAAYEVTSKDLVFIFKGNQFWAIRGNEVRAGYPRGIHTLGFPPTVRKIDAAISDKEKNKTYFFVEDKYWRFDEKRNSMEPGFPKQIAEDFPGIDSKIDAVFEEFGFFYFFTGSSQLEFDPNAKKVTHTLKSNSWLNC
Sequence of Recombinant neutrophil collagenase (P22894 101-467): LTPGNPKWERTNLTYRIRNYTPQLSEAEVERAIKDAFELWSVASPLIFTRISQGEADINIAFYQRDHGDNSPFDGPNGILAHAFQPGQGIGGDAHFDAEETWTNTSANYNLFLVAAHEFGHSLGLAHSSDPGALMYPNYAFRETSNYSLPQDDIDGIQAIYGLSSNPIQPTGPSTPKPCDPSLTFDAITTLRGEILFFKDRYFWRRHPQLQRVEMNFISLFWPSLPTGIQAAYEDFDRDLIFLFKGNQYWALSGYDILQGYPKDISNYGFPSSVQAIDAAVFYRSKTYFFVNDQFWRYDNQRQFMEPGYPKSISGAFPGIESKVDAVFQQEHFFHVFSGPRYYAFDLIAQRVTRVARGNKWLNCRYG
Description for Stromelysin: as §1, §2

Turning to `CNC(=O)[C@H](Cc1c[nH]c2ccccc12)NC(=O)C1CCCCC1C(=O)NO` (mixture of isomers) [29A,B, N-[(±)cis-2-(N'-hydroxyamidocarbonyl)-cyclohexylcarbonyl]-L-tryptophan methylamide], in test [1], the Ki was over 10000 nM. In test [1], `CNC(=O)[C@H](Cc1c[nH]c2ccccc12)NC(=O)[C@@H]1CCCC[C@@H]1C(=O)O` (mixture of isomers) [Compound 35, N-[(+)cis-2-carboxy-cyclohexylcarbonyl]-L-tryptophan methylamide] registered a Ki of over 10000 nM. As for `CNC(=O)[C@H](Cc1c[nH]c2ccccc12)NC(=O)[C@@H]1CCCC[C@H]1C(=O)O` (mixture of isomers) [Compound 36, N-[(+)trans-2-carboxy-cyclohexylcarbonyl]-L-tryptophan methylamide], the Ki in test [1] is over 10000 nM. As for `CNC(=O)[C@H](Cc1ccc2ccccc2c1)NC(=O)C(CC(=O)NO)CC(C)C` (single isomer, unassigned) [Compound 11A, N-[2-isobutyl-3-(N-hydroxyamidocarbonyl)-propanoyl]-L-3-(2-naphthyl)-alanine methylamide], the Ki in test [1] was determined as 15 nM; in test [2], 0.3 nM. The corresponding values for `CC(C)CC(CC(=O)NO)C(=O)N[C@@H](Cc1c[nH]c2ccccc12)C(=O)NCCO` (single isomer, unassigned) [Compound 13A, N-[2-isobutyl-3-(N'-hydroxyamidocarbonyl)-propanoyl]-L-tryptophan 2-hydroxyethylamide] are 20 nM and 1 nM.

`COC(=O)CC(CC(C)C)C(=O)N[C@@H](Cc1c[nH]c2ccccc12)C(=O)N[C@@H](C)c1ccccc1` (single isomer, unassigned) [Compound 20A]: the Ki in test [2] is 0.2 nM.

`CC(C)CC(CC(=O)NO)C(=O)N[C@@H](Cc1c[nH]c2ccccc12)C(=O)N[C@@H](C)c1ccccc1` (single isomer, unassigned) [Compound 21A] had a Ki in test [1] of 3 nM. For the same molecule, in test [3], the “inhibition of protease activity of chronic wound fluid” value was 94%. As for `CC(C)CC(CC(=O)O)C(=O)N[C@@H](Cc1c[nH]c2ccccc12)C(=O)NCC(=O)O` (single isomer, unassigned) [Compound 34A, N-[N-(2-Isobutyl-3-carboxypropanoyl)-L-tryptophanyl]glycine], in test [1], the Ki is over 10000 nM.

Take `CC(C)CC(CC(=O)O)C(=O)N[C@@H](Cc1c[nH]c2ccccc12)C(=O)NCC(=O)O` (single isomer, unassigned) [Compound 34B, N-[N-(2-Isobutyl-3-carboxypropanoyl)-L-tryptophanyl]glycine]: in test [1], the Ki is over 10000 nM.

In test [1], `CC(C)CC(CC(=O)NO)C(=O)N[C@@H](Cc1c[nH]c2ccccc12)C(=O)N1CCCCC1` (stereo partly drawn) [17A,B, N-[2-isobutyl-3-(N'-hydroxyamidocarbonyl)-propanoyl]-L-tryptophan piperidinamide] showed a Ki of 200 nM. Take `CNC(=O)[C@H](Cc1c[nH]c2ccccc12)NC(=O)[C@H](CC(=O)NO)CC(C)C` [Compound 5B, N-[D,L-2-isobutyl-3-(N'-hydroxycarbonylamido)-propanoyl]-tryptophan methylamide]: the Ki on Stromelysin was over 1000 nM. For the molecule `CCCCCNC(=O)[C@H](Cc1c[nH]c2ccccc12)NC(=O)C(CC(=O)NO)CC(C)C` (stereo partly drawn) [Compound 15A, N-[2-isobutyl-3-(N'-hydroxyamidocarbonyl)-propanoyl]-L-tryptophan amylamide], the Ki in test [1] came to 30 nM; in test [2], 0.3 nM. For the molecule `CC(C)CC(CC(=O)NO)C(=O)N[C@@H](Cc1c[nH]c2ccccc12)C(=O)O` (stereo partly drawn) [Compound 31A, N-[2-Isobutyl-3-(N'-hydroxyamidocarbonyl)-propanoyl]-L-tryptophan], the Ki in test [1] amounted to 200 nM. Still for that read-out and setting: next, `CC(C)CC(CC(=O)O)C(=O)N[C@@H](Cc1c[nH]c2ccccc12)C(=O)NCCCCCCN` (stereo partly drawn) [Compound 32A, N-(D,L-2-Isobutyl-3-carboxypropanoyl)-L-tryptophan (6-aminohexyl-1)amide]: over 10000 nM. `CC(C)C[C@H](CC(=O)O)C(=O)N[C@@H](Cc1c[nH]c2ccccc12)C(=O)N[C@@H](C)c1ccccc1` [Compound 39A, N-(2R-2-Carboxymethyl-4-methylpentanoyl)-L-tryptophan (S)-methylbenzyl amide]: in test [3], the “effect on proteolytic degradation of Azocoll by chronic wound fluid” value is reported as “significantly less potent that 5A, 21A, or S1209” and the “inhibition of protease activity of chronic wound fluid” value turned out to be 23%. Besides, in test [3] (0.8 μg/ml), the “increase in protease activity of chronic wound fluid” value is given as 30%. In addition, in test [3] (8 μg/ml), the “increase in protease activity of chronic wound fluid” value came to 13%. In the case of `CC(C)C[C@H](CC(=O)O)C(=O)N[C@@H](Cc1c[nH]c2ccccc12)C(=O)NCCN1CCOCC1` [Compound 51], the Ki in test [2] was determined as 32 nM. Take `CC(C)C[C@H](CC(=O)O)C(=O)N[C@@H](Cc1c[nH]c2ccccc12)C(=O)NCCc1ccccc1` [Compound 58, N-[2-Isobutyl-3-hydroxycarbonylpropanoyl]-L-tryptophan-2(phenyl)ethylamide]: the figures for the Ki (in test [4]; at Stromelysin; in test [5]) were 79 nM, 10600 nM and 26 nM, respectively. Regarding `CC(C)C[C@H](CC(=O)O)C(=O)N[C@@H](Cc1c[nH]c2ccccc12)C(=O)NCCc1ccc(S(N)(=O)=O)cc1` [Compound 59], the Ki in test [4] was 265 nM; at Stromelysin, 38200 nM; in test [5], 85 nM. Regarding `CC(=O)OCC(=O)[C@@]12OC(C)(C)O[C@@H]1C[C@H]1[C@@H]3C[C@H](F)C4=CC(=O)C=C[C@]4(C)[C@@]3(F)[C@@H](O)C[C@@]12C` [Lidex, fluocinonide, reference compound], in test [6], the “effect on PdiBu-induced ear thickness” value was “significantly inhibited” and the “effect on PdiBu-induced increase in punch biopsy weight” value is listed as “significantly inhibited”.

For the origin of these results see US5773438A, “Synthetic matrix metalloprotease inhibitors and use thereof” (Glycomed Incorporated, priority 1994, dated 1998).
